# Laboratory results as given in ChEMBL document CHEMBL5352400, “Design, synthesis and biological evaluation of novel coumarin derivatives as multifunctional ligands for the treatment of Alzheimer's disease” (Eur J Med Chem, 2022).
# Calls of active or inactive are those of the source. The calls are words filed in the database; no cut-off is given here.
# Experiments:
# [1] = Selectivity index, ratio of IC50 for inhibition of equine serum BuChE to IC50 for inhibition of electric eel AChE
# Acetylcholinesterase [2] = biological target: T1, Acetylcholinesterase (Electrophorus electricus, UniProt O42275); assay: Inhibition of electric eel AChE using acetylthiocholine iodine as substrate preincubated for 20 mins followed by substrate addition and measured after 20 mins by DTNB reagent based Ellman's method
# Beta-secretase 1 [3] = biological target: T2, Beta-secretase 1 (Homo sapiens, UniProt P56817); assay: Inhibition of recombinant human BACE1 using fluorogenic polypeptide Mca-SEVNLDAEFRK(Dpn)RRNH2 as substrate at 10 uM incubated for 60 mins by FRET assay relative to control
# [4] = Cytotoxicity in human SH-SY5Y cells assessed as reduction in cell viability incubated for 48 hrs by MTT assay; assay type: toxicity, cell-based
# [5] = Cytotoxicity in human HepG2 cells assessed as reduction in cell viability incubated for 48 hrs by MTT assay; assay type: toxicity, cell-based
# Cholinesterase = Cholinesterase (Equus caballus, UniProt P81908); assay: Inhibition of equine serum BuChE using butylthiocholine iodine as substrate preincubated for 20 mins followed by substrate addition and measured after 20 mins by DTNB reagent based Ellman's method
# Beta-secretase 1 [6] = biological target: T2, Beta-secretase 1; assay: Inhibition of recombinant human BACE1 using fluorogenic polypeptide Mca-SEVNLDAEFRK(Dpn)RRNH2 as substrate incubated for 60 mins by FRET assay
# Beta-secretase 1 [7] = biological target: T2, Beta-secretase 1; assay: Inhibition of BACE1 (unknown origin)
# [8] = biological target: Glycogen synthase kinase-3 beta (Homo sapiens, UniProt P49841); assay: Inhibition of GSK-3beta (unknown origin)
# [9] = Effective permeability of the compound in PBS buffer at pH 7.4/EtOH buffer (7:3) incubated for 20 hrs by UV-plate spectroscopy based PAMPA-BBB assay
# [10] = Acute toxicity in KM mouse assessed as change in behavior upto 1000 mg/kg,ip and measured after 14 days; assay type: organism-based; details: in vivo, 336 h, time 14 day
# [11] = biological target: Acetylcholinesterase (Electrophorus electricus) (UniProt O42275); assay: Competitive inhibition of electric eel AChE assessed as increase in slope using acetylthiocholine iodine as substrate preincubated for 20 mins followed by concentrations of substrate addition and measured after 20 mins by Lineweaver-Burk plot analysis; details: time 40.0 min
# [12] = Acute toxicity in KM mouse assessed as body weight change upto 1000 mg/kg,ip and measured after 14 days; assay type: organism-based; details: in vivo, 336 h, time 14 day
# [13] = Acute toxicity in KM mouse assessed as change in survival rate upto 1000 mg/kg,ip and measured after 14 days; assay type: organism-based; details: in vivo, 336 h, time 14 day
# [14] = Cytotoxicity in human HL7702 cells assessed as reduction in cell viability incubated for 48 hrs by MTT assay; assay type: toxicity, cell-based; details: HL7702 (L02) cells
# Acetylcholinesterase [15] = biological target: T1, Acetylcholinesterase; assay: Competitive inhibition of electric eel AChE assessed as dissociation constant using acetylthiocholine as substrate by Lineweaver-Burk plot analysis
# T2 sequence (P56817 whole entry): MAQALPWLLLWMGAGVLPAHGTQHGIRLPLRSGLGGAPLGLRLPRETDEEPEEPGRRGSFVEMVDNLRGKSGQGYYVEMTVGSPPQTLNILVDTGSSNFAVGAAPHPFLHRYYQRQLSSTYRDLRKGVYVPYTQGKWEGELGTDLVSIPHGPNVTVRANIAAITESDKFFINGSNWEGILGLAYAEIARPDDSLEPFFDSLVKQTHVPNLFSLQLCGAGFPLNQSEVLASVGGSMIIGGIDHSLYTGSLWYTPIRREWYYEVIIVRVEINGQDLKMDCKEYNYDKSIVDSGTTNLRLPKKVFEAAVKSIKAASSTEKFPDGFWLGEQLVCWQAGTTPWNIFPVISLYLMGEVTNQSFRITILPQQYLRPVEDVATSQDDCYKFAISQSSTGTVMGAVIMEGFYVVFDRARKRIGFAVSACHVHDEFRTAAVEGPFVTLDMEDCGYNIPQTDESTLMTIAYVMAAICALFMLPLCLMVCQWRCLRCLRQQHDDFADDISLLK
# Cholinesterase, sequence (P81908 whole entry): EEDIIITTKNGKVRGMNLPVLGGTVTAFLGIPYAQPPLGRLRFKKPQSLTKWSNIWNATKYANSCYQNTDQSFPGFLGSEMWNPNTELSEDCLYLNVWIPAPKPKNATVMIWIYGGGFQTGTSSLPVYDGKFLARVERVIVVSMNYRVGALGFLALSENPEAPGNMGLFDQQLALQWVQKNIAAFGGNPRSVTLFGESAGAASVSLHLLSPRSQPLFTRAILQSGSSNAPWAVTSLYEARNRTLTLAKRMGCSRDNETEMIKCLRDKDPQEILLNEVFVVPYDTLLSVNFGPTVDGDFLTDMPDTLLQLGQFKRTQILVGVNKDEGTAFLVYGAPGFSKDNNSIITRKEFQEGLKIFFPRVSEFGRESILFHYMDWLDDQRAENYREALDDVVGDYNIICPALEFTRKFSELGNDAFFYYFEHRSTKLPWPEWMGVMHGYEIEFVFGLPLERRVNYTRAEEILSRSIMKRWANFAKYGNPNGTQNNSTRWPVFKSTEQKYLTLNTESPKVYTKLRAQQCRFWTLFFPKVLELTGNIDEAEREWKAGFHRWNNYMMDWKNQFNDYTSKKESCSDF
# T1 sequence (O42275 whole entry): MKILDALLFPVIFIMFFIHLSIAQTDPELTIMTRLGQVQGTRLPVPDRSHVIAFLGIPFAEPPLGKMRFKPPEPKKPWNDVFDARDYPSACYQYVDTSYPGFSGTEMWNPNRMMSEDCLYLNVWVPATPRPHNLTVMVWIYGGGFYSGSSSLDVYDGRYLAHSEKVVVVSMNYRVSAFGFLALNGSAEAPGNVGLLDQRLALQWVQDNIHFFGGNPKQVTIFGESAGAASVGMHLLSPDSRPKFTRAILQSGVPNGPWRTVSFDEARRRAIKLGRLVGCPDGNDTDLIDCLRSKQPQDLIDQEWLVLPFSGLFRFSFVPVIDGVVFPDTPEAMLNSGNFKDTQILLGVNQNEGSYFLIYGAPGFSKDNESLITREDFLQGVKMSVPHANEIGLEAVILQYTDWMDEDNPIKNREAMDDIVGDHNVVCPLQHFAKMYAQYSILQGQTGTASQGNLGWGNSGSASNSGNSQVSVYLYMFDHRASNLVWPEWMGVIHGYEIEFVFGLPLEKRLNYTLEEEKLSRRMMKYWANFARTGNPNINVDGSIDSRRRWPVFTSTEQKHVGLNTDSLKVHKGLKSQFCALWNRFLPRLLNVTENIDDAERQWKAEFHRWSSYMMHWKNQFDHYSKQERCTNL
# Glycogen synthase kinase-3 beta, sequence (P49841 whole entry): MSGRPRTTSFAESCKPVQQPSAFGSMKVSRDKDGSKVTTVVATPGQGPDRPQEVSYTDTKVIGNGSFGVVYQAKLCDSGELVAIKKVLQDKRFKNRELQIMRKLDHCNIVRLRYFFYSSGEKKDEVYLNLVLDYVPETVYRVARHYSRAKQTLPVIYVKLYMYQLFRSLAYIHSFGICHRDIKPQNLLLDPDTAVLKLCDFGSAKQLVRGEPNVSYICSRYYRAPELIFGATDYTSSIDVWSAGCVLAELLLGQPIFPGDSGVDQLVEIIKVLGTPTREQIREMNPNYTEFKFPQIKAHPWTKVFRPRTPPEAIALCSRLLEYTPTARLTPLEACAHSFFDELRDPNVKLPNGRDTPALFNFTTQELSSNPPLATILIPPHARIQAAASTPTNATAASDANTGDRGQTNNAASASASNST
# Acetylcholinesterase (Electrophorus electricus), sequence (O42275 24-633 limits assumed): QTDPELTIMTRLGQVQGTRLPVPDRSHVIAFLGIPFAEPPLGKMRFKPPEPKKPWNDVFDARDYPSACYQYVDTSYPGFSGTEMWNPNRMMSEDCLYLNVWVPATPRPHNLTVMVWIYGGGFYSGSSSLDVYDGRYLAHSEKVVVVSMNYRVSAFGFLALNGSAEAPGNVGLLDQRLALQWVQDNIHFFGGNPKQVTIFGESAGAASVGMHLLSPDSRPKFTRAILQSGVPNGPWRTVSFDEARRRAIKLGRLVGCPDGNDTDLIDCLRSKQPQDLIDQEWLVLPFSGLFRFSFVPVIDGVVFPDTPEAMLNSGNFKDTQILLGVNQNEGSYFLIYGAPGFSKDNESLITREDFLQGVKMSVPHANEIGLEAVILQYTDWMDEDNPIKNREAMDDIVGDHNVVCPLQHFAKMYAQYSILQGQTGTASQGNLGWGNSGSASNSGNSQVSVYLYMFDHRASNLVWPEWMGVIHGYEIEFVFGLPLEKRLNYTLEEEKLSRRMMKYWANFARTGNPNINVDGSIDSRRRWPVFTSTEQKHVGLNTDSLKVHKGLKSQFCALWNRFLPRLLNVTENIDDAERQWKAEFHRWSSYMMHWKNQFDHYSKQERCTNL
SMILES,Ratio IC50 [1],IC50 (Acetylcholinesterase [2]) [µM],inhibition (Beta-secretase 1 [3]) [%],IC50 at 48 h [4] [µM],IC50 at 48 h [5] [µM],IC50 (Cholinesterase) [µM],IC50 (Beta-secretase 1 [6]) [µM],IC50 (Beta-secretase 1 [7]) [µM],IC50 [8] [µM],Papp at 20 h [9] [×10⁻⁶ cm/s],Activity [10],inhibition [11],Activity [12],Activity [13],IC50 at 48 h [14] [µM],Ki (Acetylcholinesterase [15]) [µM]
O=c1cc(OCCCN2CCC(NCc3cccc(F)c3)CC2)c2ccc(-c3cccnc3)cc2o1,2.82,10.1,34,14.4,14.6,28.4,,,,,,,,,,
O=C(Nc1cc(-c2ccc3c(OCCCNC4CCN(Cc5ccccc5)CC4)cc(=O)oc3c2)ccn1)C1CC1,> 7.41,6.75,30.9,3.41,3.65,> 50,,,,,,,,,,
O=c1cc(OCCCNC2CCN(Cc3ccccc3)CC2)c2ccc(-c3ccnc(F)c3)cc2o1,> 23.4,2.14,,5.56,5.95,> 50,,,,,,,,,,
O=c1cc(OCCCN2CCC(NCc3ccccc3)CC2)c2ccc(Br)cc2o1,1.58,22.7,72.8,> 20,11.8,35.7,,,,,,,,,,
O=c1cc(OCCCNC2CCN(Cc3ccccc3)CC2)c2ccc(-c3ccncc3)cc2o1,> 22.3,2.24,,10.2,10.6,> 50,,,,,,,,,,
CC(C)=CC(O)C/C(C)=C/COc1c2ccoc2cc2oc(=O)ccc12 (configuration not stated) [NOTOPTEROL],,> 100,10.2,> 20,> 20,> 100,26,26,1,,,,,,,
Cc1ccc(CNC2CCN(CCCOc3cc(=O)oc4cc(-c5cccnc5)ccc34)CC2)cc1,1.15,14.2,36.4,16.5,9.93,16.3,,,,,,,,,,
Nc1c2c(nc3ccccc13)CCCC2 [TACRINE],,,,,,,,,,8.04,,,,,,
N#Cc1cccc(CNC2CCN(CCCOc3cc(=O)oc4cc(-c5cccnc5)ccc34)CC2)c1,> 6.87,7.28,89.5,12.4,3.26,> 50,,,,,,,,,,
O=c1cc(OCCCN2CCC(NCc3ccccc3)CC2)c2ccc(-c3cccnc3)cc2o1,2.3,9.31,51.4,> 20,> 20,21.4,,,,,,,,,,
O=c1cc(OCCCNC2CCN(Cc3ccccc3)CC2)c2ccc(-c3ccc(F)cc3)cc2o1,> 1.46,34.3,,6.69,9.14,> 50,,,,,,,,,,
O=c1cc(OCCCN2CCC(NCc3cccc([N+](=O)[O-])c3)CC2)c2ccc(-c3cccnc3)cc2o1,> 1.37,36.5,46.1,8.37,9.29,> 50,,,,,,,,,,
CN(Cc1ccccc1)C1CCN(CCCOc2cc(=O)oc3cc(-c4ccc(F)cc4)ccc23)CC1,> 11,4.55,70.9,4.88,3.37,> 50,,,,,,,,,,
COc1cccc(CNC2CCN(CCCOc3cc(=O)oc4cc(-c5cccnc5)ccc34)CC2)c1,> 4.03,12.4,48.8,19.3,11.4,11.3,,,,,,,,,,
O=C(Nc1cc(-c2ccc3c(OCCCNC4CCN(Cc5ccccc5)CC4)cc(=O)oc3c2)ccn1)c1ccccc1,> 3.7,13.5,,1.5,1.91,> 50,,,,,,,,,,
Cc1cccc(CNC2CCN(CCCOc3cc(=O)oc4cc(-c5cccnc5)ccc34)CC2)c1,1.12,16.6,,12,13.1,18.6,,,,,,,,,,

SMILES,Ratio IC50 [1],IC50 (Acetylcholinesterase [2]) [µM],inhibition (Beta-secretase 1 [3]) [%],IC50 at 48 h [4] [µM],IC50 at 48 h [5] [µM],IC50 (Cholinesterase) [µM],IC50 (Beta-secretase 1 [6]) [µM],IC50 (Beta-secretase 1 [7]) [µM],IC50 [8] [µM],Papp at 20 h [9] [×10⁻⁶ cm/s],Activity [10],inhibition [11],Activity [12],Activity [13],IC50 at 48 h [14] [µM],Ki (Acetylcholinesterase [15]) [µM]
O=c1cc(OCCCN2CCC(NCc3ccccc3)CC2)c2ccc(-c3ccncc3)cc2o1,> 2.97,16.8,49.4,16.4,13.9,> 50,,,,,,,,,,
C[C@@]1(c2cc(-c3cncnc3)c(F)cc2F)CCSC(N)=N1,,,80.3,,,,,,,,,,,,,
O=C(Nc1cc(-c2ccc3c(OCCCN4CCC(NCc5ccccc5)CC4)cc(=O)oc3c2)ccn1)C1CC1,2.99,9.69,34.7,1.87,3.34,29,,,,,,,,,,
O=c1cc(OCCCNC2CCN(Cc3ccccc3)CC2)c2ccc(-c3cccnc3)cc2o1,24.6,1.31,86.8,10.7,10.2,32.3,1.23,,,22.8,Non-Toxic,Active,Non-Toxic,Non-Toxic,34.7,2.64
O=c1cc(OCCCN2CCC(NCc3ccc(F)c(F)c3)CC2)c2ccc(-c3cccnc3)cc2o1,1.78,12.7,93.8,5.36,9.72,22.8,1.81,,,9.4,,,,,8.05,
CN(Cc1ccccc1)C1CCN(CCCOc2cc(=O)oc3cc(-c4ccc(F)nc4)ccc23)CC1,> 12.3,4.07,61.3,15.6,10.4,> 50,,,,,,,,,,
O=c1cc(OCCCNC2CCN(Cc3ccccc3)CC2)c2ccc(-c3ccc(F)nc3)cc2o1,> 29,1.72,,5.75,3.93,> 50,,,,,,,,,,
O=c1cc(OCCCN2CCOCC2)c2ccc(-c3cccnc3)cc2o1,> 3.19,15.7,,> 20,> 20,> 50,,,,,,,,,,
O=c1cc(OCCCN2CCC(NCc3ccccc3F)CC2)c2ccc(-c3cccnc3)cc2o1,> 4.31,11.6,,19.1,15.1,> 50,,,,,,,,,,
O=c1cc(OCCCN2CCC(NCc3ccc(F)cc3)CC2)c2ccc(-c3cccnc3)cc2o1,> 1.93,25.9,22.1,10.9,> 20,> 50,,,,,,,,,,
COc1ccc(CNC2CCN(CCCOc3cc(=O)oc4cc(-c5cccnc5)ccc34)CC2)cc1,0.982,11.6,82,6.81,9.12,11.3,,,,,,,,,,
O=c1cc(OCCCN2CCC(NCc3ccsc3)CC2)c2ccc(-c3cccnc3)cc2o1,3.03,3.29,64.7,14.2,14.1,9.98,,,,15.4,,,,,36.2,
COc1cccc(/C=N/C2CCN(Cc3ccccc3)CC2)c1OC,,,,,,,,,> 15,,,,,,,
O=c1cc(OCCCN2CCC(NCc3ccccc3)CC2)c2ccc(-c3ccc(F)nc3)cc2o1,12.5,3.54,,12.2,8.49,44.2,,,,,,,,,,
O=c1cc(OCCCN2CCC(CNCc3ccccc3F)CC2)c2ccc(-c3cccnc3)cc2o1,2.91,10.7,67.2,6.49,4.26,31.1,,,,,,,,,,
